According to patent publication US20130274258A1, “CARBAZOLE AND CARBOLINE DERIVATIVES, AND PREPARATION AND THERAPEUTIC APPLICATIONS THEREOF” (PHILIP MORRIS PRODUCTS S.A., priority 2010, published 2013):
Read-outs that look alike come from different tables or passages of the source. Blank lines part the entries; values can stand above or below the molecule they belong to.

Legend:
[1] = test system: fibrosarcoma HT1080; assay: Xenograft model in nude mice, fibrosarcoma HT1080; assay type: in vivo, human; conditions: reference compound
Method: (§1) The compounds of the invention were evaluated in human tumor xenograft mouse models. Nude mice were subcutaneously implanted with tumor cells (melanoma A2058, colon carcinoma HCT116, fibrosarcoma HT1080 and acute myelocytic leukemia MV114) and when the tumor reached a volume of about 100-150 mm^3, treatment was initiated. Tumor growth was followed over time until tumor volume reached 1000-1500 mm^3 or up to 60 days. An example of how tumor developed over time when the animals were administered or not with E3 three times once a week (qwk×3) is presented in FIG. 7. […]

[2] = biological target: purified porcine tubulin (Sus scrofa, UniProt P02550+P02554); assay: Inhibition of 3H-labeled colchicine binding to purified tubulin, scintillation proximity assay; conditions: graded doses
Sequence of purified porcine tubulin (P02554 whole entry): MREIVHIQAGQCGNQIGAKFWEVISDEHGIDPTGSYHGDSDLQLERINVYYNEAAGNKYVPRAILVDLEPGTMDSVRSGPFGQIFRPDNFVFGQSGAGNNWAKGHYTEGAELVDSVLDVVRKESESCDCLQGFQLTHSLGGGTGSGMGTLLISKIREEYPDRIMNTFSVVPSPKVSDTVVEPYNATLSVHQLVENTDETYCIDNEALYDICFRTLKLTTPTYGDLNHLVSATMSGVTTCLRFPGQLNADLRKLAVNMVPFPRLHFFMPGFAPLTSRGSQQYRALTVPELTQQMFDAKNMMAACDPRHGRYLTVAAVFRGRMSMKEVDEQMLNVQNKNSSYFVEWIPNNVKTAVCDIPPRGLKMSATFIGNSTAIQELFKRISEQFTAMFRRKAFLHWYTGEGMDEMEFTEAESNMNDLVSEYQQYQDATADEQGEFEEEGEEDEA
Sequence of purified porcine tubulin (P02550 whole entry): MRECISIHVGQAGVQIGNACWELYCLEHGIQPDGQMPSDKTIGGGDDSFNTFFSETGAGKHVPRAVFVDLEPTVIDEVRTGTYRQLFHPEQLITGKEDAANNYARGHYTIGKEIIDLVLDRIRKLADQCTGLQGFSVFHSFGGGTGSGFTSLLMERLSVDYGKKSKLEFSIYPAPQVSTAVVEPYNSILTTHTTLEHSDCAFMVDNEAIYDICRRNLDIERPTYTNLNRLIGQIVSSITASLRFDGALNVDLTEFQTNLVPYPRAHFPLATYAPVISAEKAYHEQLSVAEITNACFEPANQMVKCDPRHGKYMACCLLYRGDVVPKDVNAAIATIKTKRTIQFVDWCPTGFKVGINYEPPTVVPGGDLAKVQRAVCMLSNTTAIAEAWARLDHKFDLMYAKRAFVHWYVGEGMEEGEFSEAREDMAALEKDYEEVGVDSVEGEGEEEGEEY
Method: A series of compounds according to the invention and C14 vincristine and colchicine were tested for their capacity to inhibit ^3H-labeled colchicine binding to purified tubulin. Briefly, a limiting amount of tritium-labeled colchicine and graded doses of test compounds were added to purified porcine tubulin. After an incubation period, radioactivity associated with tubulin was determined using a scintillation proximity assay. […] By showing that these compounds interact with the colchicine binding site, it differentiates them from the tubulin inhibitors of the Vinca alkaloid- and taxane-types. The results also indicate that the compounds of the invention can be used in combination with the Vinca alkaloid- and taxane-types of tubulin inhibitors since they bind to a different aspect of tubulin, and likely affect tubulin polymerization via a different mechanism. The results also indicate that the compounds of the invention can be used even in patients who are refractory or non-responsive to other tubulin inhibitors, such as the tubulin inhibitors of the Vinca alkaloid- and taxane-types.

[3] = test system: Jurkat cells; assay: Jurkat cell viability, resazurin (Alamar Blue) assay; assay type: cell-based; conditions: Homo sapiens
Method: The compounds were tested for pharmacological activity. In each of the tests, each compound was tested at […] in duplicates. […] The percentage of response relative to the DMSO control was then calculated for the mean value of the duplicates of each test. The values of the three tests were finally averaged and the standard deviations calculated.
Jurkat cells (10'000 cells/well) were incubated in the presence of various concentrations of compounds, doxorubicin or staurosporine. Twenty-two hours later, cells were incubated with resazurin (20 μg/ml) for 4 hours and fluorescence was measured at 590 nm.

[4] = test system: caspase 3 and 7; assay: Apoptosis induction in Jurkat cells, caspase 3 and 7 assay; assay type: cell-based; conditions: for IC50: Homo sapiens, Jurkat cells, caspase 3/7 assay
Method: Compounds were assessed for their ability to induce apoptosis of Jurkat cells at 2 and 10 micromolar after 4 and 22 hours.
In order to firmly establish that the compounds of the invention cause cytotoxicity through apoptosis, IC50 of five compounds of the invention, doxorubicin and staurosporin were determined in the caspase assays; results are presented in Table 2. Importantly, the IC50 determined in the Alamar Blue and in the caspase assays were largely overlapping.

[5] = Pharmacokinetics after intravenous injection, plasma concentration; assay type: in vivo; conditions: mice, intravenous, after four hours
Method: The pharmacokinetics of E3 and E35 were investigated. Mice intravenously injected with 15 mg/kg of E3 were bled after 0, 1, 5, 10, 20, 30, 60, 120 and 480 minutes. […] For E35, mice intravenously injected with 30 mg/kg of […] were bled after 0, 1, 5, 10, 20, 30, 60, 120 and 480 minutes. […] Concentration then decreased steadily over the 8 hours of the study. During the first four hours after injection, circulating concentrations of E3 and E35 were found largely similar.

[6] = Solubilization in intravenous formulation; assay type: physicochemical; conditions: 5% Cremophor and 5% ethanol in water
Source text: This formulation was then used for the subsequent animal studies (maximal tolerated dose, pharmacokinetics and efficacy in cancer models).

[7] = test system: colon carcinoma HCT116; assay: Xenograft model in nude mice, colon carcinoma HCT116; assay type: in vivo, human; conditions: reference compound
Method: as §1

[8] = test system: acute myelocytic leukemia MV114; assay: Xenograft model in nude mice, acute myelocytic leukemia MV114; assay type: in vivo, human; conditions: reference compound
Method: as §1

[9] = test system: melanoma A2058; assay: Xenograft model in nude mice, melanoma A2058; assay type: in vivo, human; conditions: reference compound
Method: as §1

[10] = Jurkat cells, 22 h then resazurin 4 h, three experiments in duplicates, read-out: IC50
[11] = Jurkat, control compounds of the tests, read-out: IC50 of control agents included in each test

Compound: CC(=O)O[C@@]12CO[C@@H]1C[C@H](O)[C@@]1(C)C(=O)[C@H](O)C3=C(C)[C@@H](OC(=O)[C@H](O)[C@@H](NC(=O)OC(C)(C)C)c4ccccc4)C[C@@](O)([C@@H](OC(=O)c4ccccc4)[C@H]21)C3(C)C [Docetaxel, reference compound]
Control with reference compound and days to study endpoint [1]: not reached by day 58 days

Compound: COc1cc(-c2ccc3[nH]c4c(C)nccc4c3c2)cc(OC)c1OC [Example C14]
inhibition of 3H-labeled colchicine binding to tubulin [2]: did not inhibit colchicine binding | IC50 [3, 10]: > 10000 nM

Compound: CCc1nccc2c1[nH]c1ccc(-c3cccc(C(N)=O)c3)cc12 [Example E35, 6-(3-aminocarbonylphenyl)-1-ethyl-9H-pyrido[3,4-b]indole]
inhibition of 3H-labeled colchicine binding to tubulin [2]: inhibited binding of colchicine | circulating concentration compared with E3 [5]: substantially lower circulating concentration than E3 | suitability of the formulation [6]: adequate | IC50 ([3]; Jurkat): 4 nM

Compound: CCc1nccc2c1[nH]c1ccc(-c3cccc(NS(C)(=O)=O)c3)cc12 [Example E44, N-(3-(1-ethyl-9H-pyrido[3,4-b]indol-6-yl)phenyl)methanesulfonamide]
inhibition of 3H-labeled colchicine binding to tubulin [2]: inhibited binding of colchicine | suitability of the formulation [6]: adequate | IC50 ([3]; Jurkat): 90 nM

Compound: COc1cncc(-c2ccc3[nH]c4c(C)nccc4c3c2)c1 [Example E53, 6-(5-methoxypyridin-3-yl)-1-methyl-9H-pyrido[3,4-b]indole]
IC50 [3, 10]: 2610 nM

Compound: Cc1nccc2c1[nH]c1ccc(-c3cccc(-c4ccco4)c3)cc12 [Example E55, 6-(3-(furan-2-yl)phenyl)-1-methyl-9H-pyrido[3,4-b]indole]
IC50 [3, 10]: 2200 nM

Compound: Cc1cccc2c1[nH]c1ccc(-c3ccc4c(c3)CCO4)cc12 [Example E58, 6-(2,3-dihydrobenzofuran-5-yl)-1-methyl-9H-carbazole]
IC50 [3, 10]: 3750 nM

Compound: CCc1c2c(nc3ccc(OC(=O)N4CCC(N5CCCCC5)CC4)cc13)-c1cc3c(c(=O)n1C2)COC(=O)[C@]3(O)CC [Irinotecan, reference compound]
Control with reference compound and days to study endpoint [7]: not reached by day 58 days

Compound: CC[C@]1(O)C[C@@H]2CN(CCc3c([nH]c4ccccc34)[C@@](C(=O)OC)(c3cc4c(cc3OC)N(C)[C@H]3[C@@](O)(C(=O)OC)[C@H](OC(C)=O)[C@]5(CC)C=CCN6CC[C@]43[C@@H]65)C2)C1 [Vinblastine, reference compound]
Control with reference compound and days to study endpoint [8]: not reached by day 58 days | Control with reference compound and days to study endpoint [9]: Vinblastine, 45 days

Compound: COc1cccc2c1C(=O)c1c(O)c3c(c(O)c1C2=O)C[C@@](O)(C(=O)CO)C[C@@H]3O[C@H]1C[C@H](N)[C@H](O)[C@H](C)O1 [doxorubicin, reference compound]
IC50 [3, 11]: 85 nM

Compound: CN[C@@H]1C[C@H]2O[C@@](C)([C@@H]1OC)n1c3ccccc3c3c4c(c5c6ccccc6n2c5c31)C(=O)NC4 [staurosporine, reference compound]
IC50 [3, 11]: 31 nM

The remaining molecules from weak to strong by IC50 [3, 10], led by results:

IC50 [3, 10]: 1260 nM
Compound: Cc1nccc2c1[nH]c1ccc(-c3cccc(C(F)(F)F)c3)cc12 [Example E6, 6-(3-(trifluoromethyl)phenyl)-1-methyl-9H-pyrido[3,4-b]indole]
caspase 3 and 7 activity compared to solvent control (%) ([4]; 2 μM after 4 h): 9.2% | caspase 3 and 7 activity compared to solvent control (%) ([4]; 2 μM after 22 h): 482.6% | caspase 3 and 7 activity compared to solvent control (%) ([4]; 10 μM after 4 h): 11.2% | caspase 3 and 7 activity compared to solvent control (%) ([4]; 10 μM after 22 h): 585.1%

IC50 [3, 10]: 913 nM
Compound: Cc1nccc2c1[nH]c1ccc(-c3cccc(-n4cccn4)c3)cc12 [Example E59, 6-(3-(1H-pyrazol-1-yl)phenyl)-1-methyl-9H-pyrido[3,4-b]indole]

IC50 [3, 10]: 775 nM
Compound: CCOc1ccc(F)c(-c2ccc3[nH]c4c(C)nccc4c3c2)c1 [Example E7, 6-(5-ethoxy-2-fluorophenyl)-1-methyl-9H-pyrido[3,4-b]indole]
caspase 3 and 7 activity compared to solvent control (%) ([4]; 2 μM after 4 h): −7.6% | caspase 3 and 7 activity compared to solvent control (%) ([4]; 2 μM after 22 h): 616.1% | caspase 3 and 7 activity compared to solvent control (%) ([4]; 10 μM after 4 h): −10.2% | caspase 3 and 7 activity compared to solvent control (%) ([4]; 10 μM after 22 h): 548.1%

IC50 [3, 10]: 733 nM
Compound: Cc1nccc2c1[nH]c1ccc(-c3cccc(CN4CCOCC4)c3)cc12 [Example E56]

IC50 [3, 10]: 602 nM
Compound: Cc1nccc2c1[nH]c1ccc(-c3cccnc3)cc12 [Example E25, 6-(pyridine-3-yl)-1-methyl-9H-pyrido[3,4-b]indole]
caspase 3 and 7 activity compared to solvent control (%) ([4]; 2 μM after 4 h): −0.6% | caspase 3 and 7 activity compared to solvent control (%) ([4]; 2 μM after 22 h): 624.4% | caspase 3 and 7 activity compared to solvent control (%) ([4]; 10 μM after 4 h): 18.7% | caspase 3 and 7 activity compared to solvent control (%) ([4]; 10 μM after 22 h): 405.7%

IC50 [3, 10]: 413 nM
Compound: Cc1nccc2c1[nH]c1ccc(-c3ccccc3)cc12 [Example E1, 6-phenyl-1-methyl-9H-pyrido[3,4-b]indole]
caspase 3 and 7 activity compared to solvent control (%) ([4]; 2 μM after 4 h): −8.5% | caspase 3 and 7 activity compared to solvent control (%) ([4]; 2 μM after 22 h): 618.5% | caspase 3 and 7 activity compared to solvent control (%) ([4]; 10 μM after 4 h): −10.0% | caspase 3 and 7 activity compared to solvent control (%) ([4]; 10 μM after 22 h): 535.9%

IC50 [3, 10]: 200 nM
Compound: Cc1nccc2c1[nH]c1ccc(-c3cccc(CN4CCN(C)CC4)c3)cc12 [Example E57, 6-(3-((4-methylpiperazin-1-yl)methyl)phenyl)-1-methyl 9H-pyrido[3,4-b]indole]

IC50 [4]: 0.215 µM | IC50 [3, 10]: 137 nM
Compound: COc1cccc(-c2ccc3[nH]c4c(C)nccc4c3c2)c1 [Example E9, 6-(3-methoxyphenyl)-1-methyl-9H-pyrido[3,4-b]indole]

IC50 [4]: 0.108 µM | IC50 [3, 10]: 104 nM
Compound: Cc1nccc2c1[nH]c1ccc(-c3cccc(Cl)c3)cc12 [Example E2, 6-(3-chlorophenyl)-1-methyl-9H-pyrido[3,4-b]indole]

IC50 [4]: 0.128 µM | IC50 [3, 10]: 64 nM
Compound: Cc1nccc2c1[nH]c1ccc(-c3ccc4c(c3)CCO4)cc12 [Example E29, 6-(2,3-dihydrobenzofuran-5-yl)-1-methyl-9H-pyrido[3,4-b]indole]

IC50 [3, 10]: 53 nM
Compound: Cc1nccc2c1[nH]c1ccc(-c3ccc4c(c3)CCCO4)cc12 [Example E54, 6-(chroman-6-yl)-1-methyl-9H-pyrido[3,4-b]indole]

IC50 [4]: 0.061 µM | IC50 [3, 10]: 47 nM
Compound: Cc1nccc2c1[nH]c1ccc(-c3cccc(C#N)c3)cc12 [Example E21, 6-(3-cyanophenyl)-1-methyl-9H-pyrido[3,4-b]indole]

IC50 [3, 10]: 25 nM
Compound: Cc1c2[nH]c3ccc(-c4cc(Cl)cc(Cl)c4)cc3c2cc[n+]1[O-] [Example E60, 6-(3,5-dichlorophenyl)-1-methyl-9H-pyrido[3,4-b]indole 2-oxide]

IC50 [3, 10]: 18 nM
Compound: CCc1nccc2c1[nH]c1ccc(-c3cccc(NC(C)=O)c3)cc12 [Example E52, N-(3-(1-ethyl-9H-pyrido[3,4-b]indol-6-yl)phenyl)acetamide]
